According to patent US20230390315A1, “COMPOSITIONS AND METHODS FOR TREATING ISCHEMIC CONDITIONS” (The Regents of the University of California, priority 2020, published 2023):

Key:
[1] = system: dermal microvascular endothelial cells (hDMVECs); experiment: hDMVEC proliferation assay; assay type: cell-based, human
Experimental: Proliferation assays with BCECs and BRECs were performed. Log-phase growing BCECs or BRECs (passage <10) were trypsinized, re-suspended and seeded in 96-well plates (no coating) in low-glucose DMEM supplemented with 10% bovine calf serum, 2 mM glutamine, and antibiotics (growth medium), at a density of 1200-1500 cells per well in 200 μl volume. All reagents were added at the indicated final concentrations. After 3-6 days, cells were incubated with AlamarBlue for 4 hrs. Fluorescence was measured at 530 nm excitation wavelength and 590 nm emission wavelength. The experiments were repeated at least three times. To create a hypoxic condition, cells were placed in a hypoxia incubator with a mixture of gas consisting of 1% 02, 5% CO2 and 94% Nz. On each 96-well plate, untreated and VEGF-treated (10/ng/ml) wells were included to monitor plate-to-plate variations. 20% methanol or 0.05% DMSO served as negative controls. 0.05% DMSO served as negative controls when Cas was tested in these cells. Human RMVECs and human adult DMVECs were split into Gelatin-coated 96 wells (2000 cells per well) in low glucose DMEM containing 10% FBS. 1200 cells/well was set up for proliferation assay in low glucose media containing FBS. Data was collected at day 4 or 5. HUVEC (p7-10) were grown on gelatin-coated plate until it reached 70-80% confluency.
Proliferation assays with fibroblasts were done in low-glucose DMEM containing 1% FBS, with or without 10 ng/ml bFGF, or 100 ng/ml human EGF and the assay was ended at day 3. ARPE-19 cells were gently lifted with 0.025% trypsin and plated in RtEGM media (Clonetics) containing 2% FBS, L-glutamine, human bFGF and GA-1000. Once cells were attached to plates, serum-free RtEGM media was used to maintain the cultures. For proliferation assays, 1500 human RPE cells were plated into 96-well plates in low-glucose DMEM containing 1% FBS. […] Four days later, tumor cell growth was measured by the MTS assay (Promega, Madison, WI), a colorimetric assay that measures metabolic activity of viable cells. […]

bFGFR1 or β1 integrin = experiment: Western blot of protein molecular mass in non-ECs; assay type: cell-based; settings: 400 μM and 2 mM
Experimental: Cells were allowed to reach 80% confluency in 12-well plates. […] At various time points, plates were taken out of the incubator and kept on ice. Cell monolayers were first washed once with ice-cold PBS before lysis with 250 μl of Pierce RIPA buffer (ThermoFisher Scientific, Rockford, IL) or use 50 mM Tris-HCl (pH 7.6), 150 mM NaCl, 10% Glycerol, 1% NP-40 containing protease/Phosphatase inhibitor cocktail (100×) (Cell signaling, #5872). Lysates were collected and mixed with 4×Bolt LDS Sample Buffer (Novex, Carlsbad, CA) in the presence of Halt protease inhibitors and phosphatase inhibitor cocktail (ThermoFisher scientific, #NP0007). The samples were subjected to SDS-PAGE (Bolt 4-12% Bis-Tris Plus, Invitrogen) using Bolt MES SDS running buffer or NuPAGE 3-8% Tris-Acetate gel using Tris-Acetate SDS running buffer (Novex). HUVECs (passage 6-8) were plated in EBM-2 basal medium (Lonza) with 0.2% FBS. […] Equal amounts of protein lysates were analyzed by SDS-PAGE and blotted with the indicated antibodies. Proteins were transferred using Tris-Glycine buffer with 20% Methanol (Proteonomics grade) (Apex BioResearch Products). Membranes were first incubated with 5% milk in TBST, pH 7.6 (TEKnova, Hollister, CA), followed by blotting with primary and secondary antibodies. […]

[2] = target: T1, α-mannosidase from Jack Bean (Canavalia ensiformis, UniProt C0HJB3); experiment: α-mannosidase activity assay; assay type: biochemical
T1 construct: purchased M7257
T1 sequence (C0HJB3 whole entry): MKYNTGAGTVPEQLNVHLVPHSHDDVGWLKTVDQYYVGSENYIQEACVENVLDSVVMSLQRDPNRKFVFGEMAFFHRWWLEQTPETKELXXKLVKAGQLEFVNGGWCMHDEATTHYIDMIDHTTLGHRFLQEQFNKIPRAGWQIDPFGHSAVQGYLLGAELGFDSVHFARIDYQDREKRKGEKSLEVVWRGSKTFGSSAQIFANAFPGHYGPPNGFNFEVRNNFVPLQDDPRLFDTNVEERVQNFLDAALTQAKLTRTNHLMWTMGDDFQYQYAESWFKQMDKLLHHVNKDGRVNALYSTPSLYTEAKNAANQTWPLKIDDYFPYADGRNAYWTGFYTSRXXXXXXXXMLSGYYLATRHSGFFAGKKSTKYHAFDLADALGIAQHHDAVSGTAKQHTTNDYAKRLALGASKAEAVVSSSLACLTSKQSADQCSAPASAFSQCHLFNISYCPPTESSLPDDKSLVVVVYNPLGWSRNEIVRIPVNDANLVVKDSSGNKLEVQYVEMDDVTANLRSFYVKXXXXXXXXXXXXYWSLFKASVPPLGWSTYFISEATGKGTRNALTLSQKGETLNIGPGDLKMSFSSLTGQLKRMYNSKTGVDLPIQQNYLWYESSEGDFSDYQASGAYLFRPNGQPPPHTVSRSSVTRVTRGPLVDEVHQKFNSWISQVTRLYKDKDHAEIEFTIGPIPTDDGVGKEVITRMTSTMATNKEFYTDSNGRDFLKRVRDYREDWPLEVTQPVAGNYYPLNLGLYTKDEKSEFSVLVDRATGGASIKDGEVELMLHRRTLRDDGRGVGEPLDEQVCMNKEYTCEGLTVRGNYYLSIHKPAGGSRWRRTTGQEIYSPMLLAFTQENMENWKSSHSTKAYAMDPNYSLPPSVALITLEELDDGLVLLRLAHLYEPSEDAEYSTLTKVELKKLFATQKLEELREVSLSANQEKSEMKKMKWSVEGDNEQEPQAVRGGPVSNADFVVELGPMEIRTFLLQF
Experimental: a-mannosidase activity was measured using substrate p-nitrophenyl α-mannopyranoside (1 mM). Enzyme from Jack Bean ([MUT]) (final concentration of 0.077 U) was incubated at 37° C. in a final volume of 50 μl of 50 mM potassium phosphate buffer, pH 7.5. α-glucosidase was assayed with substrate p-nitrophenyl α-glucoside (7 mM). […] The incubation was stopped by addition of an equal volume of acid-based stop solution (R&D systems, 895032).

N[C@H](C=O)[C@@H](O)[C@H](O)[C@H](O)CO [ManN, 2-Amino-2-deoxy-D-mannose]
hDMVECs growth ([1]; ManN by itself): stimulated
additivity with VEGF on proliferation ([1]; hDMVECs): dose-dependent additivity with VEGF
toxicity ([1]; hDMVECs, at 5 mM): minimal toxicity
molecular mass change of bFGFR1 or β1 integrin in non-ECs (bFGFR1 or β1 integrin): induce molecular mass change
concentration showing inhibitory activity [2]: 400 µM
